Measured values published in patent US20220160656A1, “INTRANASALLY ADMINISTERED ANTIHISTAMINES AND USES THEREOF” (DBBH, LLC, priority 2019, published 2022).

What was measured:
in vitro [1] = details: human; for recovery at 120 min: pH 7.4; for Papp at 120 min: apical dosing
Procedure: (§1) EpiAirway tissues, plated in 24-well plates, and accompanying culture medium and assay buffer solutions, were purchased from MatTek Corporation (Ashland, Mass.). According to the EpiAirway AIR-100 Use Protocol provided by MatTek, the tissues were returned to culture immediately upon receipt. In a tissue culture hood, using sterile technique, 1.0 mL of cold medium (AIR-100-ASY) was dispensed into each well of the 6-well plate (n=3) and one tissue insert was transferred to each of the wells. The apical surface of the tissue was exposed to the air (no medium was added to the insert). The tissues were equilibrated overnight at 37° C. in a 5% CO2 incubator. The culture medium was then replaced with fresh, pre-warmed medium until use.
(§2) The unidirectional permeation experiment was conducted according to protocol 18APCIP2 and relevant SOPs of Absorption Systems. Prior to the permeability assay, the culture medium in the plate was aspirated; and ˜1 mL of Dulbecco's phosphate-buffered saline (DPBS) was added to the well to remove any remaining residue of culture medium from the underside of the insert. The tissues were transferred to a 24-well plate with DPBS (750 μL) in each well as receiver, and dosing solution (400 μL) was added to each insert. A 100 μL aliquot was immediately removed as the 0-minute donor sample. Receiver samples (200 μL) were collected at 30, 60, and 120 minutes, replaced with an equal volume of fresh pre-warmed blank buffer at 30 and 60 minutes. The donor side was sampled (100 μL) at 0 and 120 minutes. The assay plate was placed in a humidified CO2 incubator at 37° C. during the assay period.
(§3) After 120 minutes, the tissues were rinsed with DPBS and gently dried with tissue wipes after aspiration of the assay buffer. The insert membranes with tissues attached were carefully removed from the insert apparatus, placed in a tared centrifuge tube, and weighed.
(§4) The apparent permeability coefficient (Papp) and recovery were calculated as follows:
Papp=(dCr/dt)×Vr/(A×Cini) (1)
(§5) Recovery (%)=[((Cr,final×Vr)+(Cd,final×Vd))/(Cini×Vd)]×100 (2)
(§6) Recovery (%)=[((Cr,final×Vr)+(Cd,final×Vd)+(Tissue Accumulation))/(Cini×Vd)]×100 (3)
(§7) where, • dCr/dt is the slope of cumulative receiver concentration vs. time in μM s^−1; • Vr is the volume of the receiver compartment; • Vd is the volume of the donor compartment; • A is the diffusional area of the membrane; • Cini is the donor concentration at 0 minutes in μM; • CD,final is the donor concentration at 120 minutes in μM; • Cr,final is the receiver concentration at 120 minutes in μM.
(§8) With DPBS, pH 7.4 used on both the donor and receiver sides, permeability was initiated with addition of 0.4 mL of dosing solution into the inserts and of 0.75 mL of blank buffer into the wells of the assay plate. The assay was performed for 120 minutes in a humidified incubator at 37° C.

EpiAirway tissues = EpiAirway tissues after 120 minutes
Procedure: as §1, §2, §3, §4
Papp=(dCr/dt)×Vr/(A×Cini) (1)
as §5, §6, §7, §8

rhinovirus colds = details: intranasal administration in a phosphate buffer vehicle, patients; cited from earlier work
in vitro [2] = details: pH 7.4

Row | Compound | recovery at 120 min (in vitro [1]) [%] | Tissue Accumulation Average ± SD (EpiAirway tissues) [nmol/mg] | Tissue Accumulation R1 (EpiAirway tissues; replicate R1) [nmol/mg] | Tissue Accumulation R3 (EpiAirway tissues; replicate R3) [nmol/mg] | therapeutic effect in reducing signs and symptoms of rhinovirus colds (rhinovirus colds) | recovery at 120 min, 100 μM (in vitro [2]) [%] | Papp at 120 min (in vitro [1]; pH 7.4, Papp Average ± SD, EpiAirway tissues, DPBS pH 7.4, diphenhydramine 100 μM, atenolol 100 μM, caffeine 50 μM co-dosed) [×10⁻⁶ cm/s] | Papp at 120 min (in vitro [1]; pH 7.4, Papp R1, EpiAirway tissues, DPBS pH 7.4, 120 minutes, 37° C., replicate R1) [×10⁻⁶ cm/s] | Papp at 120 min (in vitro [1]; pH 7.4, Papp R2, EpiAirway tissues, DPBS pH 7.4, replicate R2) [×10⁻⁶ cm/s] | Papp at 120 min (in vitro [1]; pH 7.4, Papp R3, EpiAirway tissues, DPBS pH 7.4, replicate R3) [×10⁻⁶ cm/s]
1 | CN(C)CCOC(c1ccccc1)c1ccccc1 [Diphenhydramine] | 103 | 0.212 ± 0.0222 | 0.188 | 0.218 | no therapeutic effect | 86.3 | – | – | – | –
2 | CC(C)NCC(O)COc1ccc(CC(N)=O)cc1 (stereo not drawn) [Atenolol] | 98.5 | – | – | – | – | – | – | – | – | –
3 | Cn1c(=O)c2c(ncn2C)n(C)c1=O [Caffeine] | 96.9 | – | – | – | – | – | 29.1 | 30.9 | 28.2 | 28.2
